Drawing on patent US11028113B2, “Cyphomycin, compositions and uses thereof” (Wisconsin Alumni Research Foundation, priority 2018, dated 2021), this text covers MIC for one compound.

Common to all, as to type: cell-based
In assay [1] the test system is Aspergillus fumigatus 11628. The experiment in a line: In vitro MIC susceptibility testing, broth microdilution (CLSI M38-A2). To be noted: Aspergillus fumigatus 11628, Triazole resistance phenotype; 50% reduction in growth turbidity at 600 nm; median of replicate assays; read-out: Cyphomycin MIC. On the procedure:
(§1) In vitro MIC susceptibility testing. MICs of Cyphomycin for the Candida isolates were determined using a broth microdilution method in accordance with the guidelines presented in Clinical and Laboratory Standards Institute (CLSI) document M27-A3 for Candida and M38-A2 for Aspergillus^36,38. MIC values of cyphomycin were defined as the lowest concentration at which a prominent decrease in growth turbidity (i.e., 50% reduction in growth determined spectrophotometrically) relative to the turbidity of the compound-free control at 600 nm was observed. Median MIC from replicate assays is reported. Results are shown in Table 1 for cyphomycin activity against drug-resistant fungi.
(In broth dilution the organism is exposed to a series of concentrations in liquid medium.)

The subject of assay [2] is Candida auris B11211. Briefly: In vitro MIC susceptibility testing, broth microdilution (CLSI M27-A3). To be noted: Candidozyma auris; Candida auris B11211, Amphotericin B resistance phenotype; 50% reduction in growth turbidity at 600 nm; median of replicate assays; read-out: Cyphomycin MIC. As to the method: as §1
Assay [3] deals with Candida glabrata 4720. The assay is described as above. To be noted: Nakaseomyces glabratus; Candida glabrata 4720, Echinocandin resistance phenotype; 50% reduction in growth turbidity at 600 nm; median of replicate assays; read-out: Cyphomycin MIC. As to the method:
as §1

Each structure is given as a SMILES string. ≈ marks a conversion by molar mass, not a printed value.

As a reminder, the MIC is the lowest concentration that inhibits growth of the organism. On to `CCC(OC1CC(C)(O)C(OC2CCC(OC(=O)C(C)C(O)c3ccc4c(c3)C(=O)C=C(C)C4=O)C(C)O2)C(C)O1)C(C)C(O)C(C)C(O)C(C)C1OC(=O)/C=C/C(C)C(O)CC(O)CCCC(O)CCC(C)C(O)C(=O)C2(O)CC(O)CC(CC(O)CC(O)CC(O)CCCC(O)/C=C/C1C)O2` (stereo not drawn) [Cyphomycin, cyphomycin], for which the MIC in assay [1] is 0.5 µg/mL (≈ 0.342 µM); in assay [2], 4 µg/mL (≈ 2.73 µM); in assay [3], 0.5 µg/mL (≈ 0.342 µM).
